Our source for the Ki values is patent publication US20050209278A1, “Piperidinyl- and piperazinyl-sulfonylmethyl hydroxamic acids and their use as protease inhibitors” (priority 2002, published 2005).

For one experiment, the target named is T1, MMP-2 (Homo sapiens, UniProt P08253).
T1 construct: made in house; host or cells: MMP-2-transfected p2AHT2 cells
T1 sequence (P08253 110-660): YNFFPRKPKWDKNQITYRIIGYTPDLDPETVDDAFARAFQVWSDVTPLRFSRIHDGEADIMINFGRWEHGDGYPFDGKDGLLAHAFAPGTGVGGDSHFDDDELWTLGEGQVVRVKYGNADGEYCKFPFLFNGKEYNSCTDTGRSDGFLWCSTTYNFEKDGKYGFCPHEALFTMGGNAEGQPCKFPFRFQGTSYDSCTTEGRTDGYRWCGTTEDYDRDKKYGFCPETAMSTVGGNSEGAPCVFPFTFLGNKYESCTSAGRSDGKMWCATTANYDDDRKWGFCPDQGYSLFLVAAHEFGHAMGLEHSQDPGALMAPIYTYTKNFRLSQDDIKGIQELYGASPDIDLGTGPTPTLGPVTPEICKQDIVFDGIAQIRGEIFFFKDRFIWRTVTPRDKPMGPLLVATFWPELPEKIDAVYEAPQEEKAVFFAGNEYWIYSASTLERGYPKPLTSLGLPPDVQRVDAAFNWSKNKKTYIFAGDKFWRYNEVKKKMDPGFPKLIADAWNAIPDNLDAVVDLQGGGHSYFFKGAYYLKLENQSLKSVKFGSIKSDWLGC
Briefly: In vitro MMP inhibition, Ki determination (fluorogenic substrate II). Format: biochemical. The following applies: read-out: MMP-2 Ki. The method, then: (§1) Several hydroxamic acids and salts thereof were analyzed in in vitro assays to determine their ability to inhibit the MMP cleavage of peptide substrates. […] and IC50 constants were calculated from the assayed hydroxamic acid-MMP interactions.
(§2) Human recombinant MMP-1, MMP-2, MMP-9, MMP-13, and MMP-14 were used in this assay. All enzymes were prepared in Assignee's laboratories following usual laboratory procedures. Protocols for the preparation and use of these enzymes are available in the scientific literature. See, e.g., Enzyme Nomenclature (Academic Press, San Diego, Calif., 1992) (and the citations therein). See also, Freije et al., “Molecular cloning and expression of collagenase-3, a novel human matrix metalloproteinase produced by breast carcinomas,” J Biol. Chem., 269(24), 16766-16773 (1994).
The MMP-2 proenzyme was purified by gelatin Sepharose chromatography from MMP-2-transfected p2AHT2 cells provided by Dr. Gregory Goldberg of Washington University (St. Louis, Mo.).
(§3) All MMPs were activated using 4-aminophenylmercuric acetate (“APMA”, Sigma Chemical, St. Louis, Mo.) or trypsin. MMP-9 also was activated using human recombinant MMP-3 (purified in Assignee's laboratory following standard cloning and purification techniques).
(§4) Two fluorogenic, methoxycoumarin-containing polypeptide substrates were used in the MMP inhibition assays: [drawing 427] Here, “Dpa” is 3-(2,4-dinitrophenyl)-L-2,3-diaminopropionyl group, and “MCA” is 7-methoxycoumarin-4-yl acetyl. Substrate (I) was purchased from Baychem (Redwood City, Calif.), and substrate II was prepared Assignee's laboratory. Substrate I was used in the IC50 determination assays, while substrate II was used in the Ki determination assays. In the absence of MMP inhibitory activity, either substrate is cleaved at the Gly-Leu peptide bond. This cleavage separates the highly fluorogenic peptide from the 2,4-dinitrophenyl quencher, thus resulting in increase of fluorescent intensity.
(§5) The stock solutions of the assayed hydroxamic acids (or salts thereof) were prepared in 1% dimethyl sulfoxide (DMSO). These stock solutions were diluted in Buffer A (100 mM Tris-HCl, 100 mM NaCl, 10 mM CaCl2, 0.05% polyoxyethylene 23 lauryl ether, pH 7.5) to obtain solutions with different hydroxamic acid concentrations, i.e., assay solutions with different concentrations of the assayed MMP inhibitory compound. The experiment controls contained the same amount of Buffer A/DMSO as the assayed sample, but contained no hydroxamic acid (or salt thereof).
The assays from which the Ki determinations were made were performed as follows. The assayed hydroxamic acid samples were incubated in separate wells of untreated white polystyrene plates (Nunc Nalgene International, Rochester, N.Y.), and analyzed on a Tecan SpectraFlour Plus plate reader. The excitation wavelength was 330 nm, and the emission wavelength—420 nm. All samples (assayed hydroxamic acids and controls) were incubated in separate plate wells at room temperature for 1 hr in the presence of 4 μM of MMP substrate (II). In the absence of MMP inhibitory activity, substrate II was cleaved at the Gly-Leu bond resulting in an increase of relative fluorescence. Inhibition was observed as a reduced rate of this increase in relative fluorescence. The various hydroxamic acids were analyzed using a single low enzyme concentration with a single substrate concentration fixed at or below the Km. This protocol is a modification of method by Knight et al., FEBS Lett., 296(3), 263-266 (1992). Apparent inhibitory constants were determined by non-linear regression of reaction velocity as a function of inhibitor and enzyme concentration using Morrison's equation, as described by Kuzmic, Anal. Biochem. 286, 45-50 (2000). […] Since the substrate concentration was chosen to be at or below the Km, the apparent Ki's from this analysis were reported as Ki's without correction for the influence of substrate.

A further experiment deals with T2, MMP-9 (Homo sapiens, UniProt P14780).
T2 construct: made in house; host or cells: MMP-9-transfected HT1080 cells (spent media)
Described as above. Format: biochemical. How it is done: as §1, §2
The MMP-9 proenzyme was purified by gelatin Sepharose chromatography from spent media of MMP-9-transfected HT1080 cells provided by Dr. Howard Welgus of Washington University (St. Louis, Mo.).
as §3, §4, §5
The assays from which the Ki determinations were made were performed as follows. The assayed hydroxamic acid samples were incubated in separate wells of untreated white polystyrene plates (Nunc Nalgene International, Rochester, N.Y.), and analyzed on a Tecan SpectraFlour Plus plate reader. The excitation wavelength was 330 nm, and the emission wavelength—420 nm. All samples (assayed hydroxamic acids and controls) were incubated in separate plate wells at room temperature for 1 hr in the presence of 4 μM of MMP substrate (II). In the absence of MMP inhibitory activity, substrate II was cleaved at the Gly-Leu bond resulting in an increase of relative fluorescence. Inhibition was observed as a reduced rate of this increase in relative fluorescence. The various hydroxamic acids were analyzed using a single low enzyme concentration with a single substrate concentration fixed at or below the Km. This protocol is a modification of method by Knight et al., FEBS Lett., 296(3), 263-266 (1992). Apparent inhibitory constants were determined by non-linear regression of reaction velocity as a function of inhibitor and enzyme concentration using Morrison's equation, as described by Kuzmic, Anal. Biochem. 286, 45-50 (2000). Modifications were made in the non-linear regression method to allow a common control reaction rate and effective enzyme concentration to be shared between all dose-response relationships on a given assay plate. […]

The mark [1] stands for this setting: human recombinant enzyme, 4 μM substrate II, room temperature, 1 hr.

Where a name gives a salt, the structure may show the parent alone. Read-outs that look alike come from different tables or passages of the source.

T2 sequence (P14780 107-707 limits assumed): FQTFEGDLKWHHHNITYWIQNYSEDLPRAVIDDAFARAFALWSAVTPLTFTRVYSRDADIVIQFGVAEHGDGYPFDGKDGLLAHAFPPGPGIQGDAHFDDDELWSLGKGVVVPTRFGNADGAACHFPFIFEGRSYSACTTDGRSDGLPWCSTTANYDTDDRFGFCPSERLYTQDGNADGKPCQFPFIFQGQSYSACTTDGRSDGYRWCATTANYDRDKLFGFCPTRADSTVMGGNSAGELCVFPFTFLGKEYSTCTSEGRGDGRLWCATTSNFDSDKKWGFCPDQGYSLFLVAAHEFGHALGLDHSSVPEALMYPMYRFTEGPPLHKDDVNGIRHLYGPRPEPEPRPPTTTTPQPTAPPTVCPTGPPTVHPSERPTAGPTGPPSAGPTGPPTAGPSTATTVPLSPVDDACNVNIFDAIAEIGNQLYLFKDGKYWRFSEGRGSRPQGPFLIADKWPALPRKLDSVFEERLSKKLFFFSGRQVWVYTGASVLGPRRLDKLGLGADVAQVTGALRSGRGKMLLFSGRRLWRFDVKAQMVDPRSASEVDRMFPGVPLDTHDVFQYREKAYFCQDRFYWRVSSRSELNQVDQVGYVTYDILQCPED

In the case of `CCCCOc1ccc(N2CCN(S(=O)(=O)C3(C(=O)NO)CCN(C(=O)N4CCOCC4)CC3)CC2)cc1` [Example 124], the Ki – broadly, the dissociation constant of the complex between target and ligand, obtained from inhibition or displacement – stood at 0.193 nM at MMP-2 (value not in parenthesis) and 0.429 nM on MMP-9 (value not in parenthesis).
With `CCCCOc1ccc(N2CCN(S(=O)(=O)C3(C(=O)NO)CCN(c4cnccn4)CC3)CC2)cc1` [Example 140], the Ki on MMP-2 (value not in parenthesis) is 0.672 nM; at MMP-9 (value not in parenthesis), 1.76 nM.
As to `CCCCOc1ccc(N2CCN(S(=O)(=O)C3(C(=O)NO)CCN4CCCC4C3)CC2)cc1F` (stereo not shown) [Example 126], the inhibition constant (Ki) at MMP-2 (value not in parenthesis) turned out to be 8.24 nM; at MMP-9 (value not in parenthesis), 19 nM.
Consider `CCCCOc1ccc(N2CCN(S(=O)(=O)C3(C(=O)NO)CCN(C(=O)c4cc5ccccc5s4)CC3)CC2)cc1` [Example 143], for which the inhibition constant Ki at MMP-2 (value not in parenthesis) turned out to be 8.97 nM; on MMP-9 (value not in parenthesis), 29 nM.
For `CCCCCCCCCc1cnc(N2CCN(S(=O)(=O)C3(C(=O)NO)CCOCC3)CC2)nc1` [Example 111], in that order: 49.6 nM and 30.6 nM.
The matching figures for `C=CCCOC(=O)N1CCC(C(=O)NO)(S(=O)(=O)N2CCN(c3ccc(OCCCC)cc3)CC2)CC1` [Example 101]: 1.64 nM and 3.8 nM.
With `CCCCCc1ccc(N2CCN(S(=O)(=O)C3(C(=O)NO)CCN(CCOC)CC3)CC2)cc1` [Example 6, N-Hydroxy-1-(2-methoxyethyl)-4-{[4-(4-pentylphenyl)piperazin-1-yl]sulfonyl}piperidine-4-carboxamide Dihydrochloride], the Ki at MMP-2 (setting [1]) stood at 0.501 nM; on MMP-9 (setting [1]), 0.287 nM.
As for `CCc1ccc(N2CCN(S(=O)(=O)C3(C(=O)NO)CCOCC3)CC2)nc1` [Example 114], the inhibitory constant (Ki) on MMP-2 (value not in parenthesis) is 0.367 nM; at MMP-9 (value not in parenthesis) it was 2.64 nM.
For `O=C(NO)C1(S(=O)(=O)N2CCN(c3ccc(-c4ccccc4)c(F)c3)CC2)CCOCC1` [Example 12, 4-{[4-(2-fluoro-1,1′-biphenyl-4-yl)piperazin-1-yl]sulfonyl}-N-hydroxytetrahydro-2H-pyran-4-carboxamide Hydrochloride], the inhibitory constant (Ki) turned out to be 0.18 nM at MMP-2 (setting [1]) and 1 nM at MMP-9 (setting [1]).
For `CCCCc1ccc(C2CCN(S(=O)(=O)C3(C(=O)NO)CCOCC3)CC2)s1` [Example 19, 4-{[4-(5-butylthien-2-yl)piperidin-1-yl]sulfonyl}-N-hydroxytetrahydro-2H-pyran-4-carboxamide], in that order: 2.06 nM and 0.5 nM.
Turning to `CCCCOc1ccc(N2CCN(S(=O)(=O)C3(C(=O)NO)CCN(C(=S)N(C)C)CC3)CC2)cc1` [Example 123], the figures for the Ki at MMP-2 (value not in parenthesis) and on MMP-9 (value not in parenthesis) were 1.28 nM and 2.72 nM, respectively.
As to `O=C(NO)C1(S(=O)(=O)N2CCN(c3ccc(OCCCC(F)(F)F)cc3)CC2)CCOCC1` [Example 7, N-hydroxy-4-({4-[4-(4,4,4-trifluorobutoxy)phenyl]piperazin-1-yl}sulfonyl)tetrahydro-2H-pyran-4-carboxamide Hydrochloride], the Ki on MMP-2 (setting [1]) turned out to be 0.497 nM; on MMP-9 (setting [1]), 7.35 nM.
In the case of `COCCN1CCC(C(=O)NO)(S(=O)(=O)N2CCN(c3ccc(OCCC(C)C)cc3)CC2)CC1` [Example 148], the inhibition constant Ki at MMP-2 (value not in parenthesis) was found to be 1.19 nM; at MMP-9 (value not in parenthesis), 2.35 nM.
For `CC(C)(C)N1CCC(C(=O)NO)(S(=O)(=O)N2CCN(c3ccc(OCCCC(F)(F)F)cc3F)CC2)CC1` [Example 116], in that order: 4.31 nM and 49.5 nM.
Take `O=C(NO)C1(S(=O)(=O)N2CCN(c3ncccn3)CC2)CCOCC1` [Example 106]: the Ki at MMP-2 (value not in parenthesis) came to 134 nM; on MMP-9 (value not in parenthesis), 235 nM.
`CCCCc1ccc(N2CCN(S(=O)(=O)C3(C(=O)NO)CCN(CCOC)CC3)CC2)cc1` [Example 5, 4-{[4-(4-butylphenyl)piperazin-1-yl]sulfonyl}-N-hydroxy-1-(2-methoxyethyl)piperidine-4-carboxamide Dihydrochloride]: the Ki at MMP-2 (setting [1]) was 0.62 nM; at MMP-9 (setting [1]), 0.108 nM.
On to `CCCCCc1ccc(N2CCN(S(=O)(=O)C3(C(=O)NO)CCOCC3)CC2)c(F)c1` [Example 23, 4-{[4-(2-fluoro-4-pentylphenyl)piperazin-1-yl]sulfonyl}-N-hydroxytetrahydro-2H-pyran-4-carboxamide Hydrochloride], for which the figures for the Ki at MMP-2 (setting [1]) and at MMP-9 (setting [1]) were 8.25 nM and 2.67 nM, respectively.
Consider `CCCc1ccc(N2CCN(S(=O)(=O)C3(C(=O)NO)CCOCC3)CC2)nc1` [Example 136], for which the Ki is 0.142 nM on MMP-2 (value not in parenthesis) and 0.196 nM at MMP-9 (value not in parenthesis).
For `O=C(NO)C1(S(=O)(=O)N2CCN(c3ccc(SC(F)(F)F)cc3)CC2)CCN(Cc2ccccc2)CC1` [Example 152], in that order: 0.871 nM and 90 nM.
As for `CCCCOc1ccc(N2CCN(S(=O)(=O)C3(C(=O)NO)CCN(c4ccc(O)cc4)CC3)CC2)cc1` [Example 121], the Ki is 2.15 nM at MMP-2 (value not in parenthesis) and 3.6 nM on MMP-9 (value not in parenthesis).
With `CCCCOc1ccc(N2CCN(S(=O)(=O)C3(C(=O)NO)CCN(C(=O)OCCF)CC3)CC2)cc1` [Example 113], the Ki at MMP-2 (value not in parenthesis) was determined as 0.4 nM; at MMP-9 (value not in parenthesis) it was 1.01 nM.
The matching figures for `O=C(NO)C1(S(=O)(=O)N2CCN(c3ccc(OCCCC(F)(F)F)cc3)CC2)CCN(c2cnccn2)CC1` [Example 112]: 0.69 nM and 15.4 nM.
With `O=C(NO)C1(S(=O)(=O)N2CCN(c3ccc(OCCCC(F)(F)F)cc3)CC2)CCN(C2CC2)CC1` [Example 153], the inhibitory constant (Ki) on MMP-2 (value not in parenthesis) came out at 0.502 nM; at MMP-9 (value not in parenthesis) it was 6.1 nM.
